Experimental data from patent publication US9662323B2, “Compounds having muscarinic receptor antagonist and beta2 adrenergic receptor agonist activity” (CHIESI FARMACEUTICI S.p.A., priority 2015, dated 2017).

What was measured:
Human M3 receptor = target: T1, Human M3 receptor (Homo sapiens, UniProt P20309); test: M3 Receptor Radioligand Binding Assay; conditions: human M3 receptor membranes, [3H]-N-methyl scopolamine; read-out: M3 binding affinity (Ki class)
T1 construct: purchased Perkin Elmer
Method: Biological Characterization M3 Receptor Radioligand Binding Assay
The assay was carried out in 96-well polypropylene plates in a volume of 250 ul. […] The final assay concentration of DMSO was 0.5% (v/v). The plates were sealed and incubated for 2 h at room temperature on an orbital shaker (slow speed). Membranes were harvested onto 96-well unifilter GF/C filter plates pre-treated with 0.5% polyethyleneimine (v/v), using a filter manifold, washed four times with 200 ul of assay buffer. The plates were dried before addition of 50 μl of microscint-0, sealed then read in a Trilux Microbeta scintillation counter.

Human β2 adrenoceptor = target: T2, Human β2 adrenoceptor (Homo sapiens, UniProt P07550); test: β2 Adrenoceptor Radioligand Binding Assay; conditions: human β2 adrenoceptor membranes, 125-I Cyanopindolol; read-out: B2 binding affinity (Ki class)
T2 construct: purchased Perkin Elmer
Method: β2 Adrenoceptor Radioligand Binding Assay
The assay was carried out in 96-well polypropylene plates in a volume of 200 ul. The assay buffer used was 25 mM HEPES, 0.5% BSA (w/v), 1 mM EDTA, 0.02% ascorbic acid (v/v), (pH 7.4). The final assay concentration of DMSO was 0.5% (v/v). The plates were sealed and incubated for 1 h at room temperature on an orbital shaker (slow speed). Membranes were harvested onto 96-well unifilter GF/C filter plates pre-treated with 0.5% polyethyleneimine (v/v), using a filter manifold, washed six times with 200 ul of wash buffer containing 10 mM HEPES and 500 mM NaCl. The plates were dried before addition of 50 μl of microscint-0, sealed then read in a Trilux Microbeta scintillation counter. IC50 values are determined from competition curves using a non-linear curve fitting program. Ki values were calculated from IC50 values by the Cheng and Prusoff equation.

T1 sequence (P20309 whole entry): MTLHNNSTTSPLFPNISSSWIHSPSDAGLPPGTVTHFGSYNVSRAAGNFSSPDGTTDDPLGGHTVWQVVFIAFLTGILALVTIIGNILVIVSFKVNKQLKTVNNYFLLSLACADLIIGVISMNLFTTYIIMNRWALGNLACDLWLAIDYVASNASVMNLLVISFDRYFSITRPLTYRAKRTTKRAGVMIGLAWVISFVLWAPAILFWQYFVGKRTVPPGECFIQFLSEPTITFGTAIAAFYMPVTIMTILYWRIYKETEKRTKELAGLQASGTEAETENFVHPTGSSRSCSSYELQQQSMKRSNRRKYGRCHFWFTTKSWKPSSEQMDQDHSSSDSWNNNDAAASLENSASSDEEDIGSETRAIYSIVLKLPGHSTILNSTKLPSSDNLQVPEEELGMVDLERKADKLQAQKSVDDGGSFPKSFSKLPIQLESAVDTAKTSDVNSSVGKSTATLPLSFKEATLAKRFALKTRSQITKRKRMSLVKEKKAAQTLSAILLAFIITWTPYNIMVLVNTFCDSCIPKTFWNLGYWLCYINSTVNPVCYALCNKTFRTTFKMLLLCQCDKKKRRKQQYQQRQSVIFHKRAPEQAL
T2 sequence (P07550 whole entry): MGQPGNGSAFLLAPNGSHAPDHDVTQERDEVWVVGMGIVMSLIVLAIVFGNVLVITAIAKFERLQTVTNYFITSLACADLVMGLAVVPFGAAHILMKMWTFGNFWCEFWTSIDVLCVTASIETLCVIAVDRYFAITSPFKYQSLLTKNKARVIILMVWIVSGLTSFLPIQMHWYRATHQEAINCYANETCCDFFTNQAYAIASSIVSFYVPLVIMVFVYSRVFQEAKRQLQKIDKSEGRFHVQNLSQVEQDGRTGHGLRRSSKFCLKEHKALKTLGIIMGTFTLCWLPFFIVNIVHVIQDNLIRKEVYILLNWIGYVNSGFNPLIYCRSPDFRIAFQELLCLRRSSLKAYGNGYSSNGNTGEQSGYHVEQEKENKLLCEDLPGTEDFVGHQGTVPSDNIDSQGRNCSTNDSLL

Row | Structure (SMILES) | Ki (Human M3 receptor) | Ki (Human β2 adrenoceptor)
1 | CCN(CCCNC[C@H](O)c1ccc(O)c2[nH]c(=O)ccc12)C(=O)c1ccc(CCC(=O)N2CC(C(=O)O[C@H]3CN4CCC3CC4)(c3ccccc3)C2)cc1 [Compound 12A, (R)-Quinuclidin-3-yl 1-(3-(4-(ethyl(3-(((R)-2-hydroxy-2-(8-hydroxy-2-oxo-1,2-dihydroquinolin-5-yl)ethyl)amino)propyl)carbamoyl)phenyl)propanoyl)-3-phenylazetidine-3-carboxylate] | 1 to 10 nM | 1 to 10 nM
2 | O=C(Cc1ccc(CC(=O)N(CCCNC[C@H](O)c2ccc(O)c3[nH]c(=O)ccc23)Cc2ccccc2F)cc1)N1CCC(C(=O)O[C@H]2CN3CCC2CC3)(c2ccccc2)CC1 [Compound 45, (R)-Quinuclidin-3-yl 1-(2-(4-(2-((2-fluorobenzyl)(3-(((R)-2-hydroxy-2-(8-hydroxy-2-oxo-1,2-dihydroquinolin-5-yl)ethyl)amino)propyl)amino)-2-oxoethyl)phenyl)acetyl)-4-phenylpiperidine-4-carboxylate] | < 1 nM | < 1 nM
3 | O=C(c1ccc(OCCCCCNC[C@H](O)c2ccc(O)c3[nH]c(=O)ccc23)cc1)N1CCC(C(=O)O[C@H]2CN3CCC2CC3)(c2ccccc2)CC1 [Compound 1, (R)-Quinuclidin-3-yl 1-(4-((5-(((R)-2-hydroxy-2-(8-hydroxy-2-oxo-1,2-dihydroquinolin-5-yl)ethyl)amino)pentyl)oxy)benzoyl)-4-phenylpiperidine-4-carboxylate] | < 1 nM | < 1 nM
4 | O=C(c1ccc(OCc2ccc(CCNC[C@H](O)c3ccc(O)c4[nH]c(=O)ccc34)cc2)cc1)N1CCC(C(=O)O[C@H]2CN3CCC2CC3)(c2ccccc2)CC1 [Compound 26, (R)-Quinuclidin-3-yl 1-(4-((4-(2-(((R)-2-hydroxy-2-(8-hydroxy-2-oxo-1,2-dihydroquinolin-5-yl)ethyl)amino)ethyl)benzyl)oxy)benzoyl)-4-phenylpiperidine-4-carboxylate] | < 1 nM | < 1 nM
5 | O=C(Cc1ccc(CC(=O)N(CCCNC[C@H](O)c2ccc(O)c3[nH]c(=O)ccc23)Cc2ccccc2OCc2ccccc2)cc1)N1CCC(C(=O)O[C@H]2CN3CCC2CC3)(c2ccccc2)CC1 [Compound 43, (R)-Quinuclidin-3-yl 1-(2-(4-(2-((2-(benzyloxy)benzyl)(3-(((R)-2-hydroxy-2-(8-hydroxy-2-oxo-1,2-dihydroquinolin-5-yl)ethyl)amino)propyl)amino)-2-oxoethyl)phenyl)acetyl)-4-phenylpiperidine-4-carboxylate] | < 1 nM | 1 to 10 nM
6 | O=C(CCc1ccc(C(=O)N(CCCNC[C@H](O)c2ccc(O)c3[nH]c(=O)ccc23)Cc2ccccc2)cc1)N1CCC(C(=O)O[C@H]2CN3CCC2CC3)(c2ccccc2)CC1 [Compound 54, (R)-Quinuclidin-3-yl 1-(3-(4-(benzyl(3-(((R)-2-hydroxy-2-(8-hydroxy-2-oxo-1,2-dihydroquinolin-5-yl)ethyl)amino)propyl)carbamoyl)phenyl)propanoyl)-4-phenylpiperidine-4-carboxylate] | 1 to 10 nM | 1 to 10 nM
7 | O=C(c1ccc(OCCCCCCNC[C@H](O)c2ccc(O)c3[nH]c(=O)ccc23)cc1)N1CC(C(=O)O[C@H]2CN3CCC2CC3)(c2ccc(F)cc2)C1 [Compound 3A, (R)-Quinuclidin-3-yl 3-(4-fluorophenyl)-1-(4-((6-(((R)-2-hydroxy-2-(8-hydroxy-2-oxo-1,2-dihydroquinolin-5-yl)ethyl)amino)hexyl)oxy)benzoyl)azetidine-3-carboxylate] | 1 to 10 nM | < 1 nM
8 | O=C(NCCCCNC[C@H](O)c1ccc(O)c2[nH]c(=O)ccc12)c1ccc(C(=O)N2CCC(C(=O)O[C@H]3CN4CCC3CC4)(c3ccccc3)CC2)s1 [Compound 21, (R)-Quinuclidin-3-yl 1-(5-((4-(((R)-2-hydroxy-2-(8-hydroxy-2-oxo-1,2-dihydroquinolin-5-yl)ethyl)amino)butyl)carbamoyl)thiophene-2-carbonyl)-4-phenylpiperidine-4-carboxylate] | 1 to 10 nM | < 1 nM
9 | O=C(c1ccc(COCc2ccc(CNC[C@H](O)c3ccc(O)c4[nH]c(=O)ccc34)cc2)cc1)N1CCC(C(=O)O[C@H]2CN3CCC2CC3)(c2ccccc2)CC1 [Compound 64, (R)-Quinuclidin-3-yl 1-(4-(((4-((((R)-2-hydroxy-2-(8-hydroxy-2-oxo-1,2-dihydroquinolin-5-yl)ethyl)amino)methyl)benzyl)oxy)methyl)benzoyl)-4-phenylpiperidine-4-carboxylate] | < 1 nM | 1 to 10 nM
10 | Cc1cc(CCC(=O)N2CCC(C(=O)O[C@H]3CN4CCC3CC4)(c3ccccc3)CC2)ccc1OCCCCCNC[C@H](O)c1ccc(O)c2[nH]c(=O)ccc12 [Compound 17, (R)-Quinuclidin-3-yl 1-(3-(4-((5-(((R)-2-hydroxy-2-(8-hydroxy-2-oxo-1,2-dihydroquinolin-5-yl)ethyl)amino)pentyl)oxy)-3-methylphenyl)propanoyl)-4-phenylpiperidine-4-carboxylate] | < 1 nM | < 1 nM
11 | O=C(c1ccc(OCCCCCCNC[C@H](O)c2ccc(O)c3[nH]c(=O)ccc23)cc1)N1CCC(C(=O)O[C@H]2CN3CCC2CC3)(c2ccc(Br)cc2)CC1 [Compound 50, (R)-Quinuclidin-3-yl 4-(4-bromophenyl)-1-(4-((6-(((R)-2-hydroxy-2-(8-hydroxy-2-oxo-1,2-dihydroquinolin-5-yl)ethyl)amino)hexyl)oxy)benzoyl)piperidine-4-carboxylate] | > 10 nM | < 1 nM
12 | O=C(c1ccc(OCc2cccc(OCCCCNC[C@H](O)c3ccc(O)c4[nH]c(=O)ccc34)c2)cc1)N1CCC(C(=O)O[C@H]2CN3CCC2CC3)(c2ccccc2)CC1 [Compound 22, (R)-Quinuclidin-3-yl 1-(4-((3-(4-(((R)-2-hydroxy-2-(8-hydroxy-2-oxo-1,2-dihydroquinolin-5-yl)ethyl)amino)butoxy)benzyl)oxy)benzoyl)-4-phenylpiperidine-4-carboxylate] | 1 to 10 nM | < 1 nM
13 | Cc1cc(/C=C/C(=O)N2CCC(C(=O)O[C@H]3CN4CCC3CC4)(c3ccccc3)CC2)ccc1OCCCCCNC[C@H](O)c1ccc(O)c2[nH]c(=O)ccc12 [Compound 18, (R)-Quinuclidin-3-yl 1-((E)-3-(4-((5-(((R)-2-hydroxy-2-(8-hydroxy-2-oxo-1,2-dihydroquinolin-5-yl)ethyl)amino)pentyl)oxy)-3-methylphenyl)acryloyl)-4-phenylpiperidine-4-carboxylate] | < 1 nM | < 1 nM
14 | O=C(c1cccc(OCCCCCNC[C@H](O)c2ccc(O)c3[nH]c(=O)ccc23)c1)N1CCC(C(=O)O[C@H]2CN3CCC2CC3)(c2ccccc2)CC1 [Compound 2, (R)-Quinuclidin-3-yl 1-(3-((5-(((R)-2-hydroxy-2-(8-hydroxy-2-oxo-1,2-dihydroquinolin-5-yl)ethyl)amino)pentyl)oxy)benzoyl)-4-phenylpiperidine-4-carboxylate] | 1 to 10 nM | < 1 nM
15 | O=C(Cc1ccc(OCCCCCNC[C@H](O)c2ccc(O)c3[nH]c(=O)ccc23)cc1)N1CC(C(=O)O[C@H]2CN3CCC2CC3)(c2ccccc2)C1 [Compound 6A, (R)-Quinuclidin-3-yl 1-(2-(4-((5-(((R)-2-hydroxy-2-(8-hydroxy-2-oxo-1,2-dihydroquinolin-5-yl)ethyl)amino)pentyl)oxy)phenyl)acetyl)-3-phenylazetidine-3-carboxylate] | 1 to 10 nM | < 1 nM
16 | Cc1ccccc1CN(CCCNC[C@H](O)c1ccc(O)c2[nH]c(=O)ccc12)C(=O)Cc1ccc(CC(=O)N2CCC(C(=O)O[C@H]3CN4CCC3CC4)(c3ccccc3)CC2)cc1 [Compound 34, (R)-Quinuclidin-3-yl 1-(2-(4-(2-((3-(((R)-2-hydroxy-2-(8-hydroxy-2-oxo-1,2-dihydroquinolin-5-yl)ethyl)amino)propyl)(2-methylbenzyl)amino)-2-oxoethyl)phenyl)acetyl)-4-phenylpiperidine-4-carboxylate] | < 1 nM | < 1 nM
17 | O=C(CCc1ccc(OCCCCCNC[C@H](O)c2ccc(O)c3[nH]c(=O)ccc23)cc1)N1CCC(C(=O)O[C@H]2CN3CCC2CC3)(c2ccccc2)CC1 [Compound 7, (R)-Quinuclidin-3-yl 1-(3-(4-((5-(((R)-2-hydroxy-2-(8-hydroxy-2-oxo-1,2-dihydroquinolin-5-yl)ethyl)amino)pentyl)oxy)phenyl)propanoyl)-4-phenylpiperidine-4-carboxylate] | < 1 nM | < 1 nM
18 | O=C(NCCCCNC[C@H](O)c1ccc(O)c2[nH]c(=O)ccc12)c1ccc(C(=O)N2CC(C(=O)O[C@H]3CN4CCC3CC4)(c3ccccc3)C2)cc1 [Compound 10A, (R)-Quinuclidin-3-yl 1-(4-((4-(((R)-2-hydroxy-2-(8-hydroxy-2-oxo-1,2-dihydroquinolin-5-yl)ethyl)amino)butyl)carbamoyl)benzoyl)-3-phenylazetidine-3-carboxylate] | 1 to 10 nM | < 1 nM
